Test results as given in paper PMC9319939, “Siccanin Is a Dual-Target Inhibitor of Plasmodium falciparum Mitochondrial Complex II and Complex III” (Pharmaceuticals, 2022).

Experiments:
[1] = tested on: glycerol-3-phosphate dehydrogenase (G3PDH); test: G3PDH activity, crude mitochondrial fraction, DCIP reduction; assay type: biochemical, Plasmodium falciparum
Experimental: (§1) A synchronized parasite culture was grown for 64 h and a crude mitochondrial fraction was prepared from trophozoite-stage cells (as confirmed by Giemsa staining). Infected red blood cells were collected by centrifugation at 800× g for 5 min at 4 °C and incubated for 5 min at room temperature with 40 mL of 0.075% (w/v) saponin in AIM buffer (120 mM KCl, 20 mM NaCl, 10 mM PIPES (1,4-piperazinediethanesulfonic acid) buffer [pH 6.7], 1 mM MgCl2, 5 mM glucose). Released parasites were collected by centrifugation at 2780× g for 7 min at 4 °C and washed three times with AIM buffer. […]
(§2) Complex II, DHODH, MQO, NDH2, G3PDH, and dihydroorotate-cytochrome c (DHO-cyt c) reductase activities were measured, as described previously, using a V-660 spectrophotometer (JASCO; Tokyo, Japan). Briefly, complex II activity was measured at 25 °C in a 1 mL reaction mixture containing 45 μM 2,6-dichlorophenolidophenol (DCIP), 100 μM ubiquinone-2 (UQ2), and 2 mM KCN in 50 mM potassium phosphate buffer, pH 8.0. DHODH, MQO, and G3PDH activities were measured at 25 °C in 1 mL of the reaction mixture containing 45 μM DCIP, 100 μM UQ2, and 2 mM KCN in 30 mM Tris-HCl buffer, pH 8.0. […] NDH2 activity was measured at 25 °C in 1 mL of the reaction mixture containing 100 µM UQ1 and 2 mM KCN in 50 mM potassium phosphate buffer, pH 8.0. […]

P. falciparum 3D7-yDHODH = test: Growth inhibition of yeast DHODH-expressing strain; assay type: cell-based; settings: Plasmodium falciparum, 3D7, read-out: Growth inhibition EC50, 3D7-yDHODH
Experimental: P. falciparum 3D7-yDHODH was prepared and maintained as described previously. P. falciparum Dd2, and Dd2-derived mutant strains were kindly provided by David A. Fidock, and maintained at Nagasaki University essentially as described in reference, except without supplementation with WR99210.
Synchronized ring-form parasites (0.3% parasitemia) were prepared in complete medium containing different concentration of various compounds (at a fixed final DMSO concentration of 0.1% (v/v)) and distributed to 96-well plates at 100 μL/well. After 72 h of incubation, parasite growth was monitored by the previously described lactate dehydrogenase (PfLDH)-based assay method; plates were read using a SpectraMax® Paradigm spectrophotometer (Molecular Devices, Inc.; San Jose, CA, USA). EC50 values were calculated using Prism® ver.6.01 (GraphPad; San Diego, CA, USA). Values are presented as the means of three independent experiments.

[2] = target: T1, dihydroorotate dehydrogenase (DHODH) (Plasmodium falciparum, UniProt Q08210); test: DHODH activity, crude mitochondrial fraction, DCIP reduction; assay type: biochemical
T1 construct: used as crude mitochondrial fraction for all enzymatic assays; endogenous in cells; host or cells: P. falciparum 3D7 trophozoite-stage parasites, crude mitochondrial fraction
T1 sequence (Q08210 24-569): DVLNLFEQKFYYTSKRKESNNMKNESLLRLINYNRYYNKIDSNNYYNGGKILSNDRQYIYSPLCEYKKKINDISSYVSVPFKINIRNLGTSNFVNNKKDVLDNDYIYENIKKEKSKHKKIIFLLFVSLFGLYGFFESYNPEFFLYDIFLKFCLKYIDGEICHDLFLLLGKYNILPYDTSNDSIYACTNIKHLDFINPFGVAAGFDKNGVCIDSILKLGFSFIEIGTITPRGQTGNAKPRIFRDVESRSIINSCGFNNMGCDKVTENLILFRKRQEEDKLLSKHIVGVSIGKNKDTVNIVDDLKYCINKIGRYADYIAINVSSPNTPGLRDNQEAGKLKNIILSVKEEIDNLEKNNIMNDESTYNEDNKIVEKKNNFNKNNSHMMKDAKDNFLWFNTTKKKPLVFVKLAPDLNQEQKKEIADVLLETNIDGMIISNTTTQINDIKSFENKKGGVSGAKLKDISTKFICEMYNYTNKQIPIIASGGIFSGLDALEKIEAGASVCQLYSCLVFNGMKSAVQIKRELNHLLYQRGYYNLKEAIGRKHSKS
Experimental: as §1, with “buffer. P. falciparum was suspended in MSE buffer [225 mM mannitol, 75 mM sucrose, 0.1 mM ethylenediaminetetraacetic acid (EDTA), 3 mM Tris-HCl buffer, pH 7.4] containing 1 mM phenylmethylsulphonyl fluoride, and disrupted by nitrogen cavitation at 1200 psi using a 4639 Cell Disruption Bomb (Parr Instrument Company; Moline, IL, USA). The unbroken cells and cell debris were removed by centrifugation at 800× g for 5 min at 4 °C. The supernatant was centrifuged at 5000× g for 20 min at 4 °C.” for “buffer.”
Complex II, DHODH, MQO, NDH2, G3PDH, and dihydroorotate-cytochrome c (DHO-cyt c) reductase activities were measured, as described previously, using a V-660 spectrophotometer (JASCO; Tokyo, Japan). Briefly, complex II activity was measured at 25 °C in a 1 mL reaction mixture containing 45 μM 2,6-dichlorophenolidophenol (DCIP), 100 μM ubiquinone-2 (UQ2), and 2 mM KCN in 50 mM potassium phosphate buffer, pH 8.0. DHODH, MQO, and G3PDH activities were measured at 25 °C in 1 mL of the reaction mixture containing 45 μM DCIP, 100 μM UQ2, and 2 mM KCN in 30 mM Tris-HCl buffer, pH 8.0. Complex II, DHODH, MQO, and G3PDH activities were measured by monitoring the change in absorbance at 600 nm (reflecting DCIP reduction) after the reaction was initiated by adding 10 mM succinate, 500 μM dihydroorotate, 10 mM malate, or 500 μM glycerol-3-phosphate, respectively. NDH2 activity was measured at 25 °C in 1 mL of the reaction mixture containing 100 µM UQ1 and 2 mM KCN in 50 mM potassium phosphate buffer, pH 8.0. […]

[3] = tested on: malate:quinone oxidoreductase (MQO); test: MQO activity, crude mitochondrial fraction, DCIP reduction; assay type: biochemical, Plasmodium falciparum
Experimental: as §1, §2

Cc1cc(O)c2c(c1)O[C@@]1(C)CC[C@H]3C(C)(C)CCC[C@]34CO[C@@H]2[C@H]41 [Siccanin]
Effect on G3PDH activity ([1]; 10 µM): weakly inhibited
Relative residual activity of G3PDH ([1]; siccanin 10 μM): 72.5 ± 4.0%
EC50 (P. falciparum 3D7-yDHODH): 10.3 µM
Effect on DHODH activity ([2]; 10 µM): did not inhibit
Effect on DHODH activity ([2]; 60 μM): does not inhibit
remaining activity at 10 µM ([2]; siccanin 10 μM, read-out: Relative residual activity of DHODH): 101 ± 8.1%
Effect on MQO activity ([3]; 10 µM): did not inhibit
Relative residual activity of MQO ([3]; siccanin 10 μM): 109.2 ± 2.0%
